Assay results reported in ChEMBL document CHEMBL6087436, “The novel β-hairpin antimicrobial peptide D-G(RF)3 demonstrates exceptional antibacterial efficacy” (Eur J Med Chem, 2025).
≈ marks a conversion by molar mass, not a printed value. Calls of active or inactive are those of the source. The calls are words filed in the database; no cut-off is given here.

What was measured:
Staphylococcus aureus [1] = assay: Antibacterial activity against Staphylococcus aureus ATCC 25923 in presence of 8 uM ZnCl2; type: functional, organism-based
Staphylococcus aureus [2] = assay: Antibacterial activity against Staphylococcus aureus ATCC 25923 in presence of 4 uM FeCl3; type: functional, organism-based
Escherichia coli [3] = assay: Additive antibacterial activity against Escherichia coli assessed as fractional inhibitory concentration index in presence of kanamycin incubated for 18 hrs by checkerboard method; type: functional
Klebsiella pneumoniae [4] = assay: Bactericidal activity against Klebsiella pneumoniae ATCC 700603 assessed as bacterial eradication by measuring bacterial counts at 2 times MIC measured after 30 mins by Time killing assay relative to control; type: functional; conditions: 0.5 h
[5] = Acute toxicity in male balb/c mouse assessed as mortality at 63.2 to 100 mg/kg, ip measured after 7 days by karber method; type: organism-based; conditions: in vivo, 168 h, dose 63.2-100 mg/kg, time 7 day
Cell membrane [6] = assay: Induction of Inner membrane permeabilization in Escherichia coli ML-35 ATCC […] at 2 times MIC measured every 5 mins for 120 mins by ONPG dye based assay; type: subcellular
Staphylococcus aureus [7] = assay: Antibacterial activity against Staphylococcus aureus ATCC 25923 in presence of 4.5 mM KCl; type: functional, organism-based
[8] = Acute toxicity in male balb/c mouse assessed as hepatocyte necrosis at 81.28 mg/kg, ip by H and E staining based analysis; type: organism-based; conditions: in vivo
[9] = tested on: Staphylococcus epidermidis; assay: Antibacterial activity against Staphylococcus epidermidis ATCC 12228 assessed as inhibition of bacterial growth incubated for 18 hrs by microbroth dilution assay; type: functional
Pseudomonas aeruginosa [10] = assay: Antibacterial activity against Pseudomonas aeruginosa ATCC 27853 in presence of 2 mM CaCl2; type: functional, organism-based
Cell membrane [11] = assay: Induction of cell membrane permeability in Staphylococcus aureus assessed as rupture of bacteria with leaked contents at 2 times MIC measured after 30 mins by SEM analysis; type: subcellular
Staphylococcus aureus [12] = assay: Additive antibacterial activity against Staphylococcus aureus assessed as fractional inhibitory concentration index in presence of ciprofloxacin incubated for 18 hrs by checkerboard method; type: functional
[13] = Acute toxicity in male balb/c mouse assessed as renal necrosis at 81.28 mg/kg, ip by H and E staining based analysis; type: organism-based; conditions: in vivo
Escherichia coli [14] = assay: Antimicrobial activity against Escherichia coli at 2 times MIC in presence of LPS at 64 uM preincubated for 1 hr followed by bacterial addition and measured after 6 hrs by LPS competitive inhibition assay; type: functional, organism-based; conditions: time 7.0 hrs
Staphylococcus aureus [15] = assay: Additive antibacterial activity against Staphylococcus aureus assessed as fractional inhibitory concentration index in presence of polymyxin B incubated for 18 hrs by checkerboard method; type: functional
Pseudomonas aeruginosa [16] = assay: Antibacterial activity against Pseudomonas aeruginosa ATCC 27853 in presence of 8 uM ZnCl2; type: functional, organism-based
Escherichia coli [17] = assay: Inhibition of biofilm formation in Escherichia coli ATCC 25922 incubated for 24 hrs by crystal violet staining based analysis; type: functional, organism-based; conditions: dose 1-32 µM
Cell membrane [18] = assay: Induction of cell membrane permeability in Staphylococcus aureus assessed as agglutination with leaked contents at 2 times MIC measured after 2 hrs by SEM analysis; type: subcellular
Cell membrane [19] = assay: Induction of cell membrane permeability in Staphylococcus aureus assessed as bacterial dissolution at 2 times MIC measured after 30 mins by SEM analysis; type: subcellular
Cell membrane [20] = assay: Induction of cell membrane permeability in Staphylococcus aureus assessed as bacterial aggregation at 2 times MIC measured after 30 mins by SEM analysis; type: subcellular
Cell membrane [21] = assay: Induction of cell membrane permeability in Staphylococcus aureus assessed as bacterial aggregation into breakage at 2 times MIC measured after 2 hrs by SEM analysis; type: subcellular
Staphylococcus aureus [22] = assay: Synergistic antibacterial activity against Staphylococcus aureus assessed as fractional inhibitory concentration index in presence of polymyxin B incubated for 18 hrs by checkerboard method; type: functional
Klebsiella pneumoniae [23] = assay: Bactericidal activity against Klebsiella pneumoniae ATCC 700603 assessed as bacterial eradication by measuring bacterial counts at 1 times MIC measured after 30 mins by Time killing assay relative to control; type: functional; conditions: 0.5 h
[24] = Acute toxicity in male balb/c mouse assessed as mortality at 25 to 50 mg/kg, ip measured after 50 mins by karber method; type: organism-based; conditions: in vivo, dose 25-50 mg/kg
Escherichia coli [25] = assay: Antimicrobial activity against Escherichia coli at 2 times MIC in presence of LPS preincubated for 1 hr followed by bacterial addition and measured after 6 hrs by LPS competitive inhibition assay; type: functional, organism-based
Escherichia coli [26] = assay: Inhibition of biofilm formation in Escherichia coli ATCC 25922 at 1 uM incubated for 24 hrs by crystal violet staining based analysis; type: functional, organism-based
Pseudomonas aeruginosa [27] = assay: Synergistic antibacterial activity against Pseudomonas aeruginosa assessed as fractional inhibitory concentration index in presence of polymyxin B incubated for 18 hrs by checkerboard method; type: functional
Cell membrane [28] = assay: Induction of cell membrane permeability in Staphylococcus aureus assessed as bacterial aggregation into breakage at 2 times MIC measured after 30 mins by SEM analysis; type: subcellular
Cell membrane [29] = assay: Induction of Inner membrane permeabilization in Escherichia coli ML-35 ATCC […] at 4 times MIC measured every 5 mins for 120 mins by ONPG dye based assay; type: subcellular
Cell membrane [30] = assay: Induction of cell membrane permeability in Staphylococcus aureus assessed as bacterial adhesion at 2 times MIC by SEM analysis; type: subcellular
Cell membrane [31] = assay: Induction of cell membrane permeability in Staphylococcus aureus assessed as bacterial aggregation into clusters at 2 times MIC measured after 2 hrs by SEM analysis; type: subcellular
Staphylococcus aureus [32] = assay: Synergistic antibacterial activity against Staphylococcus aureus assessed as fractional inhibitory concentration index in presence of ciprofloxacin incubated for 18 hrs by checkerboard method; type: functional
Cell membrane [33] = assay: Induction of Outer membrane permeabilization in Escherichia coli at 1 times MIC by NPN-dye based fluorescence analysis; type: subcellular
Cell membrane [34] = assay: Induction of cell membrane permeability in Staphylococcus aureus assessed as bacterial aggregation into clusters at 2 times MIC measured after 30 mins by SEM analysis; type: subcellular
Cell membrane [35] = assay: Induction of cell membrane permeability in Staphylococcus aureus assessed as bacterial collapse at 2 times MIC by SEM analysis; type: subcellular
Cell membrane [36] = assay: Induction of cell membrane permeability in Staphylococcus aureus assessed as bacterial dissolution at 2 times MIC measured after 2 hrs by SEM analysis; type: subcellular
Escherichia coli [37] = assay: Synergistic antibacterial activity against Escherichia coli assessed as fractional inhibitory concentration index in presence of kanamycin incubated for 18 hrs by checkerboard method; type: functional
[38] = Acute toxicity in male balb/c mouse assessed as renal intracellular bleeding at 45.33 mg/kg, ip by H and E staining based analysis; type: organism-based; conditions: in vivo
Klebsiella pneumoniae [39] = assay: Bactericidal activity against Klebsiella pneumoniae ATCC 700603 assessed as bacterial eradication by measuring bacterial counts at 2 times MIC measured after 15 mins by Time killing assay relative to control; type: functional; conditions: 0.25 h
Cell membrane [40] = assay: Induction of Cytoplasmic membrane depolarization in Escherichia coli at 1 to 4 times MIC measured for every 10 mins by DiSC3(5) dye based fluorescence method; type: subcellular
Cell membrane [41] = assay: Induction of Cytoplasmic membrane depolarization in Staphylococcus aureus at 4 times MIC measured for every 10 mins by DiSC3(5) dye based fluorescence method; type: subcellular
[42] = Acute toxicity in male balb/c mouse assessed as hepatocyte necrosis at 45.33 mg/kg, ip by H and E staining based analysis; type: organism-based; conditions: in vivo

**Q.** Which Activity (Staphylococcus aureus [1]) does the source give for `N=C(N)NCCC[C@H](NC(=O)CNC(=O)[C@H]1CCCN1C(=O)[C@H](CCCNC(=N)N)NC(=O)[C@H](Cc1ccccc1)NC(=O)[C@H](CCCNC(=N)N)NC(=O)[C@H](Cc1ccccc1)NC(=O)[C@H](CCCNC(=N)N)NC(=O)[C@@H](N)Cc1ccccc1)C(=O)N[C@@H](Cc1ccccc1)C(=O)N[C@@H](CCCNC(=N)N)C(=O)N[C@@H](Cc1ccccc1)C(=O)N[C@@H](CCCNC(=N)N)C(=O)N[C@@H](Cc1ccccc1)C(N)=O` here?
**A.** Active

**Q.** And the Activity (Staphylococcus aureus [2])?
**A.** Active

**Q.** What about the “fractional inhibitory concentration index (FICI)” value (Escherichia coli [3]) of the same compound?
**A.** 0.563

**Q.** And the Activity (Klebsiella pneumoniae [4])?
**A.** 100%

**Q.** And the Activity [5]?
**A.** Toxic

**Q.** What about the Activity (Cell membrane [6]) of the same compound?
**A.** Active

**Q.** What about the Activity (Staphylococcus aureus [7]) of the same compound?
**A.** Active

**Q.** What about the Activity [8] of the same compound?
**A.** Toxic

**Q.** And the MIC [9]?
**A.** 2 µM (≈ 3.98 µg/mL)

**Q.** What about the Activity (Pseudomonas aeruginosa [10]) of the same compound?
**A.** Active

**Q.** And the Activity (Cell membrane [11])?
**A.** Active

**Q.** And the “fractional inhibitory concentration index (FICI)” value (Staphylococcus aureus [12])?
**A.** 0.563

**Q.** What about the Activity [13] of the same compound?
**A.** Toxic

**Q.** What about the Activity (Escherichia coli [14]) of the same compound?
**A.** inactive

**Q.** And the “fractional inhibitory concentration index (FICI)” value (Staphylococcus aureus [15])?
**A.** 0.625

**Q.** And the Activity (Pseudomonas aeruginosa [16])?
**A.** Active

**Q.** And the inhibition (Escherichia coli [17])?
**A.** Dose-dependent-effect

**Q.** What about the Activity (Cell membrane [18]) of the same compound?
**A.** Active

**Q.** Which results are given for `N=C(N)NCCC[C@@H](NC(=O)CNC(=O)[C@H]1CCCN1C(=O)[C@@H](CCCNC(=N)N)NC(=O)[C@@H](Cc1ccccc1)NC(=O)[C@@H](CCCNC(=N)N)NC(=O)[C@@H](Cc1ccccc1)NC(=O)[C@@H](CCCNC(=N)N)NC(=O)[C@H](N)Cc1ccccc1)C(=O)N[C@H](Cc1ccccc1)C(=O)N[C@H](CCCNC(=N)N)C(=O)N[C@H](Cc1ccccc1)C(=O)N[C@H](CCCNC(=N)N)C(=O)N[C@H](Cc1ccccc1)C(N)=O`?
**A.** Activity (Cell membrane [19]): Active; Activity (Staphylococcus aureus [1]): Active; Activity (Staphylococcus aureus [2]): Active; Activity (Cell membrane [20]): Active; Activity (Cell membrane [21]): Active; fractional inhibitory concentration index (FICI) (Staphylococcus aureus [22]): 0.375; Activity (Klebsiella pneumoniae [23]): 100%; Activity [24]: Toxic; Activity (Staphylococcus aureus [7]): Active; Activity (Escherichia coli [25]): inactive; inhibition (Escherichia coli [26]): Active; fractional inhibitory concentration index (FICI) (Pseudomonas aeruginosa [27]): 0.313; Activity (Cell membrane [28]): Active; Activity (Cell membrane [29]): Active; MIC [9]: 2 µM (≈ 3.98 µg/mL); Activity (Pseudomonas aeruginosa [10]): Active; Activity (Cell membrane [30]): Active; Activity (Cell membrane [31]): Active; fractional inhibitory concentration index (FICI) (Staphylococcus aureus [32]): 0.313; Activity (Cell membrane [33]): Active; Comparable Permeability To Polymyxin B Was Observed; Activity (Cell membrane [34]): Active; Activity (Cell membrane [35]): Active; Activity (Cell membrane [36]): Active; fractional inhibitory concentration index (FICI) (Escherichia coli [37]): 0.313; Activity [38]: Toxic; Activity (Klebsiella pneumoniae [39]): 100%; Activity (Cell membrane [40]): Active; Activity (Cell membrane [41]): Active; Comparable Depolarization To Valinomycin Was Observed; Activity [42]: Toxic; Activity (Pseudomonas aeruginosa [16]): Active; inhibition (Escherichia coli [17]): Dose-dependent-effect
